Measurements reported in US20250326815A1, “STAPLE-CONTAINING POLYPEPTIDES AND APPLICATION THEREOF” (Soter Biopharma Pte. Ltd., priority 2021, published 2025).

What was measured:
[1] = Pharmacokinetic evaluation in cynomolgus monkeys; assay type: in vivo; conditions: cynomolgus monkey, plasma, 0.02 mg/kg, single SC 0.02 mpk; for half-life: read-out: Half-life T1/2 (converted); for AUC(0-t): read-out: Integral of the SC concentration AUC0-240 h; for Cmax: read-out: Maximum plasma concentration
Procedure: Pharmacokinetics of the compound in cynomolgus monkeys were assayed.
(§1) The pharmacokinetic characteristics of the compound in mammals after a subcutaneous injection were assayed using the standard protocol. In the assay, the candidate compound was formulated into a clear solution and given to cynomolgus monkeys by a single subcutaneous injection (SC, 0.02 mpk). The solvent of the subcutaneous injection was citrate buffer (20 mM, pH=7). Whole blood was collected, and plasma was prepared. Drug concentration was analyzed by LC-MS/MS method, and pharmacokinetic parameters were calculated using Phoenix WinNonlin software.

[2] = Pharmacokinetic evaluation in mice; assay type: in vivo; conditions: mouse, plasma, 0.048 mg/kg, C57BL/6 mice, single SC 0.048 mpk; for half-life: read-out: Half-life T1/2 (converted); for AUC(0-t): read-out: Integral of the SC concentration AUC0-72 h; for Cmax: read-out: Maximum plasma concentration
Procedure: Pharmacokinetics of the compound in C57BL/6 mice were assayed.
as §1, with “rodents” for “mammals”, “mice” for “cynomolgus monkeys”, “0.048” for “0.02”

[3] = test system: DIO mice; assay: Drug efficacy study in DIO mice (weight loss); assay type: in vivo; conditions: 10 nmol/kg subcutaneous, once every three days
Procedure: The weight loss effect of the assay compound in DIO mice was studied.
1. After arriving at the facility, the DIO mice were raised in an animal breeding room with strictly controlled environmental conditions. The temperature in the breeding room was maintained at 20 to 24° C., and the humidity was maintained at 30 to 70%. The temperature and humidity in the breeding room were monitored in real time using a thermo-hygrometer, and the temperature and humidity were recorded twice a day (once in the morning and once in the afternoon). The lighting in the animal breeding room was controlled by an electronic timed lighting system. The lights were on for 12 hours and off for 12 hours every day (turned on at 7:00 am and turned off at 19:00 pm). During the assay, the animals were raised in individual cages and toys were provided in each cage. During the assay, the animals had free access to food (growth/breeding feed for rats and mice) and water.
2. The animals in each group were subcutaneously injected with a solvent or an assay compound (10 nmol/kg), respectively. The administration time was 9:30 in the morning. The administration frequency was once every three days, and the administration cycle was 21 days.

[4] = biological target: T1, GLP-1R (Homo sapiens, UniProt P43220); assay: In vitro agonistic activity on GLP-1R (cAMP assay); assay type: cell-based; conditions: HEK293 cell line; for Agonistic activity on GLP-1R Max Activity (%): Max Dose 20 nM
T1 construct: host or cells: HEK293
T1 sequence (P43220 24-463, species assumed): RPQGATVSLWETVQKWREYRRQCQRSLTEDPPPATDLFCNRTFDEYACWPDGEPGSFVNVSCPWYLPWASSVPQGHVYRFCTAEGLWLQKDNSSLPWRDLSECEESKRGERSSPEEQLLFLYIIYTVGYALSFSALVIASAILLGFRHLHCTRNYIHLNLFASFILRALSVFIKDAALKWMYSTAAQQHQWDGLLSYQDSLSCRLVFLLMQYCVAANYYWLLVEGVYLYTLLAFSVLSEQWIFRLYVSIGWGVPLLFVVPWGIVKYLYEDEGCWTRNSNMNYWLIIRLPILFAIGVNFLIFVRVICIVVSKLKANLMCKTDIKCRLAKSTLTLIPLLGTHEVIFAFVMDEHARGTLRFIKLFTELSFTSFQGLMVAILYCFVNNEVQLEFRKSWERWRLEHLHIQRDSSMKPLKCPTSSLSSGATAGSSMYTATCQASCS
Procedure: (§2) The cell lines were constructed by Shanghai WuXi AppTec.
(§3) The compounds to be assayed were serially diluted 4-fold with Bravo to obtain 10 concentrations, with a starting concentration of 30 μM.
(§4) 1) 100 nL of the compound was transferred to an OptiPlate-384 plate using Echo.
(§5) 2) The OptiPlate-384 plate was centrifuged at 1000 rpm for 5 seconds.
(§6) 1) A GLP-1R/GIPR/GCGR cell cryopreservation tube was quickly placed in warm water at 37° C. to thaw.
(§7) 2) The cell suspension was transferred to a 15 mL centrifuge tube, and gently washed with 10 ml of HBSS.
(§8) 3) The centrifuge tube was centrifuged at 1000 rpm at room temperature for 1 minute.
(§9) 4) The supernatant was discarded.
(§10) 5) The cells at the bottom were gently dispersed and gently washed with 10 ml of HBSS. The cells were centrifuged and sedimented, and finally resuspended with the assay buffer.
(§11) 6) Vi-cell was used to measure the cell density and viability.
(§12) 7) The concentration of GLP-1R/GIPR/GCGR cells was diluted to 2.0*105/mL with the assay buffer.
(§13) 8) […] of the diluted cell suspension was transferred to the OptiPlate-384 plate.
(§14) 9) The plate was incubated at room temperature for 30 minutes.
(§15) 1) 10 μL of 800 nM gradient diluted cAMP standard was added into an empty well of the OptiPlate-384 plate.
(§16) 2) 10 μL of cAMP assay reagent was added.
(§17) 3) The OptiPlate-384 plate was covered with a TopSeal-A film and incubated at room temperature for 60 minutes.
(§18) The TopSeal-A was peeled off and the plate was read on the EnVision.

[5] = biological target: T2, GIPR (Homo sapiens, UniProt P48546); assay: In vitro agonistic activity on GIPR (cAMP assay); assay type: cell-based; conditions: CHO cell line; for Agonistic activity on GIPR Max Activity (%): Max Dose 20 nM
T2 construct: host or cells: CHO
T2 sequence (P48546 22-466): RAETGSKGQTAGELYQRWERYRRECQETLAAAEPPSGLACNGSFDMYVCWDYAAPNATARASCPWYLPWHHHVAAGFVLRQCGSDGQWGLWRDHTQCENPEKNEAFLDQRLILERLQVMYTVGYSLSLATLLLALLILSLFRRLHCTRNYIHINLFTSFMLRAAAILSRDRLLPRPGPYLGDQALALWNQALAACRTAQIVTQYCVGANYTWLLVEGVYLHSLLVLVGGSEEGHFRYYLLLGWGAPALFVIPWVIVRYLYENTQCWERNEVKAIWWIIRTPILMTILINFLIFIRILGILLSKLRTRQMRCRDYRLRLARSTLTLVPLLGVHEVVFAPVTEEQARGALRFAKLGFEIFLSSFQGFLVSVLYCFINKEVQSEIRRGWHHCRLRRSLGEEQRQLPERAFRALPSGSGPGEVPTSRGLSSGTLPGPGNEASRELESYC
Procedure: as §2, §3, §4, §5, §6, §7, §8, §9, §10, §11, §12, §13, §14, §15, §16, §17, §18

[6] = biological target: T3, GCGR (Homo sapiens, UniProt P47871); assay: In vitro agonistic activity on GCGR (cAMP assay); assay type: cell-based; conditions: HEK293 cell line; for Agonistic activity on GCGR Max Activity (%): Max Dose 100 nM
T3 construct: host or cells: HEK293
T3 sequence (P47871 26-477, species assumed): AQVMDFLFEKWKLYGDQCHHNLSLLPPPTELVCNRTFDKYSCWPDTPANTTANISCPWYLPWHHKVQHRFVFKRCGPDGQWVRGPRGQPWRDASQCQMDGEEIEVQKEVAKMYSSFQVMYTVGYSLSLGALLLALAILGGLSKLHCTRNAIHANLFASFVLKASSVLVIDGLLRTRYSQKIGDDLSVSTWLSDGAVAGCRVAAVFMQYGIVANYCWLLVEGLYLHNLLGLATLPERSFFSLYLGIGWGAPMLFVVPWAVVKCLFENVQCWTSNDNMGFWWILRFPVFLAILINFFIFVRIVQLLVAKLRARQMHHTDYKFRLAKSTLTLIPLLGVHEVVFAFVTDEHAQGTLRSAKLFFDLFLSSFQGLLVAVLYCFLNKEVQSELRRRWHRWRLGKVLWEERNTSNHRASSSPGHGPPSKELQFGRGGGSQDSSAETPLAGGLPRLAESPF
Procedure: as §2, §3, §4, §5, §6, §7, §8, §9, §10, §11, §12, §13, §14, §15, §16, §17, §18

Tmax [1]	half-life [1]	AUC(0-t) [1]	Cmax [1]	Tmax [2]	half-life [2]	AUC(0-t) [2]	Cmax [2]	EC50 [4]	Agonistic activity on GLP-1R Max Activity (%) [4]	EC50 [5]	Agonistic activity on GIPR Max Activity (%) [5]	EC50 [6]	Agonistic activity on GCGR Max Activity (%) [6]	Compound	ΔBody weight % (comparison of the body weight after 21 days with the body weight on day 1) [3]
24 h	93 h	5.51 µM·h	43 nM	8 h	21 h	1.81 µM·h	46 nM	0.0227 nM	122.64%	> 20 nM	2.26%	0.0267 nM	98.93%	CC(C)C[C@H](NC(=O)[C@H](CC(C)C)NC(=O)[C@H](Cc1c[nH]c2ccccc12)NC(=O)[C@H](CCC(=O)O)NC(=O)[C@@H](NC(=O)[C@H](Cc1ccccc1)NC(=O)[C@H](CCC(=O)O)NC(=O)[C@@H]1CCCCNC(=O)CN(C(=O)COCCOCCNC(=O)COCCOCCNC(=O)CC[C@H](NC(=O)CCCCCCCCCCCCCCCCCCC(=O)O)C(=O)O)CC(=O)NCCCC[C@H](NC(=O)[C@H](CCC(=O)O)NC(=O)[C@H](CC(=O)O)NC(=O)[C@H](CC(C)C)NC(=O)[C@H](Cc2ccc(O)cc2)NC(=O)[C@H](CCCCN)NC(=O)[C@H](CO)NC(=O)[C@H](Cc2ccc(O)cc2)NC(=O)[C@H](CC(=O)O)NC(=O)[C@H](CO)NC(=O)[C@@H](NC(=O)[C@H](Cc2ccccc2)NC(=O)[C@@H](NC(=O)CNC(=O)[C@H](CCC(N)=O)NC(=O)C(C)(C)NC(=O)[C@@H](N)Cc2c[nH]cn2)[C@@H](C)O)[C@@H](C)O)C(=O)N[C@@H](CCCCN)C(=O)N[C@@H](C)C(=O)N1)C(C)C)C(=O)N[C@@H](CCC(=O)O)C(=O)NCC(=O)NCC(=O)N1CCC[C@H]1C(=O)N[C@@H](CO)C(=O)N[C@@H](CO)C(=O)NCC(N)=O [WX001]	−28.91%
32 h	67 h	5.72 µM·h	48 nM	12 h	22 h	1.16 µM·h	36 nM	0.0446 nM	85.77%	> 20 nM	4.12%	0.0531 nM	68.62%	CC(C)C[C@H](NC(=O)[C@H](CC(C)C)NC(=O)[C@H](Cc1c[nH]c2ccccc12)NC(=O)[C@@H]1CCCCNC(=O)CN(C(=O)COCCOCCNC(=O)COCCOCCNC(=O)CC[C@H](NC(=O)CCCCCCCCCCCCCCCCCCC(=O)O)C(=O)O)CC(=O)NCCCC[C@H](NC(=O)[C@H](C)NC(=O)[C@H](CCCCN)NC(=O)[C@H](CCCCN)NC(=O)[C@H](CCC(=O)O)NC(=O)[C@H](CC(=O)O)NC(=O)[C@H](CC(C)C)NC(=O)[C@H](Cc2ccc(O)cc2)NC(=O)[C@H](CCCCN)NC(=O)[C@H](CO)NC(=O)[C@H](Cc2ccc(O)cc2)NC(=O)[C@H](CC(=O)O)NC(=O)[C@H](CO)NC(=O)[C@@H](NC(=O)[C@H](Cc2ccccc2)NC(=O)[C@@H](NC(=O)CNC(=O)[C@H](CCC(N)=O)NC(=O)C(C)(C)NC(=O)[C@@H](N)Cc2c[nH]cn2)[C@@H](C)O)[C@@H](C)O)C(=O)N[C@@H](CCC(=O)O)C(=O)N[C@@H](Cc2ccccc2)C(=O)N[C@@H](C(C)C)C(=O)N1)C(=O)N[C@@H](CCC(=O)O)C(=O)NCC(=O)NCC(=O)N1CCC[C@H]1C(=O)N[C@@H](CO)C(=O)N[C@@H](CO)C(=O)NCC(N)=O [WX004]	−31.89%
